Measurements taken from patent US20230049952A1, “METHODS AND COMPOUNDS FOR RESTORING MUTANT P53 FUNCTION” (PMV Pharmaceuticals, Inc., priority 2020, published 2023).

Tested on: NF-κB signaling pathway in MT373 tumors
Test: MT373 syngeneic sarcoma model: mouse NF-κB signaling pathway profiling panel
Format: in vivo

## CCn1c(C#CCNc2ccccc2)cc2cc(CNC3CCN(C)CC3)ccc21 [Compound 1, 1-Anilino-3-{1-ethyl-5-[(1-methyl-4-piperidylamino)methyl]-1H-indol-2-yl}-2-propyne]
150 mg/kg BIDx1, 72 h
  Card10 fold increase over or percent reduction vs vehicle control: 1.39 ± 0.49 fold or %
  Card11 fold increase over or percent reduction vs vehicle control: 1.52 ± 0.54 fold or %
  Casp1 fold increase over or percent reduction vs vehicle control: 9.73 ± 31.75 fold or %
  Casp8 fold increase over or percent reduction vs vehicle control: 1.04 ± 0.13 fold or %
  Ccl2 fold increase over or percent reduction vs vehicle control: 52.53 ± 13.14 fold or %
  Ccl5 fold increase over or percent reduction vs vehicle control: 2.54 ± 37.88 fold or %
  Cd27 fold increase over or percent reduction vs vehicle control: 1.53 ± 0.39 fold or %
  Cd40 fold increase over or percent reduction vs vehicle control: 20.33 ± 32.50 fold or %
  Cflar fold increase over or percent reduction vs vehicle control: 1.10 ± 0.20 fold or %
  Chuk fold increase over or percent reduction vs vehicle control: 5.62 ± 25.53 fold or %
  Crebbp fold increase over or percent reduction vs vehicle control: 1.12 ± 0.15 fold or %
  Csf1 fold increase over or percent reduction vs vehicle control: 3.08 ± 4.37 fold or %
  Csf2 fold increase over or percent reduction vs vehicle control: 5.23 ± 19.46 fold or %
  Csf3 fold increase over or percent reduction vs vehicle control: 46.68 ± 13.40 fold or %
  Egfr fold increase over or percent reduction vs vehicle control: 1.01 ± 0.23 fold or %
  Egr1 fold increase over or percent reduction vs vehicle control: 66.09 ± 6.29 fold or %
  Eif2ak2 fold increase over or percent reduction vs vehicle control: 5.36 ± 11.08 fold or %
  Elk1 fold increase over or percent reduction vs vehicle control: 19.15 ± 11.29 fold or %
  F2r fold increase over or percent reduction vs vehicle control: 14.84 ± 13.77 fold or %
  Fadd fold increase over or percent reduction vs vehicle control: 1.25 ± 0.13 fold or %
  Fasl fold increase over or percent reduction vs vehicle control: 42.85 ± 19.54 fold or %
  Fos fold increase over or percent reduction vs vehicle control: 86.19 ± 1.00 fold or %
  Hmox1 fold increase over or percent reduction vs vehicle control: 1.03 ± 0.18 fold or %
  Icam1 fold increase over or percent reduction vs vehicle control: 1.07 ± 0.18 fold or %
  Ifng fold increase over or percent reduction vs vehicle control: 22.04 ± 33.20 fold or %
  Ikbkb fold increase over or percent reduction vs vehicle control: 1.24 ± 0.27 fold or %
  Ikbke fold increase over or percent reduction vs vehicle control: 2.05 ± 40.34 fold or %
  Ikbkg fold increase over or percent reduction vs vehicle control: 1.06 ± 0.32 fold or %
  Il1a fold increase over or percent reduction vs vehicle control: 63.60 ± 11.55 fold or %
  Il1b fold increase over or percent reduction vs vehicle control: 84.09 ± 6.24 fold or %
  Il1r1 fold increase over or percent reduction vs vehicle control: 9.26 ± 29.81 fold or %
  Il10 fold increase over or percent reduction vs vehicle control: 12.42 ± 41.31 fold or %
  Irak1 fold increase over or percent reduction vs vehicle control: 4.37 ± 14.84 fold or %
  Irak2 fold increase over or percent reduction vs vehicle control: 1.07 ± 0.14 fold or %
  Irf1 fold increase over or percent reduction vs vehicle control: 1.06 ± 0.20 fold or %
  Jun fold increase over or percent reduction vs vehicle control: 26.30 ± 10.41 fold or %
  Lta fold increase over or percent reduction vs vehicle control: 26.12 ± 35.38 fold or %
  Ltbr fold increase over or percent reduction vs vehicle control: 1.05 ± 0.08 fold or %
  Map3k1 fold increase over or percent reduction vs vehicle control: 1.25 ± 0.28 fold or %
  Mapk3 fold increase over or percent reduction vs vehicle control: 1.22 ± 0.17 fold or %
  Myd88 fold increase over or percent reduction vs vehicle control: 37.76 ± 10.69 fold or %
  Nfkb1 fold increase over or percent reduction vs vehicle control: 1.06 ± 0.05 fold or %
  Nfkb2 fold increase over or percent reduction vs vehicle control: 1.30 ± 0.23 fold or %
  Nfkbia fold increase over or percent reduction vs vehicle control: 6.09 ± 32.11 fold or %
  Nod1 fold increase over or percent reduction vs vehicle control: 1.26 ± 0.26 fold or %
  Raf1 fold increase over or percent reduction vs vehicle control: 4.12 ± 9.21 fold or %
  Rel fold increase over or percent reduction vs vehicle control: 1.09 ± 0.23 fold or %
  Rela fold increase over or percent reduction vs vehicle control: 1.01 ± 0.08 fold or %
  Relb fold increase over or percent reduction vs vehicle control: 3.68 ± 22.32 fold or %
  Ripk1 fold increase over or percent reduction vs vehicle control: 1.11 ± 0.09 fold or %
  Ripk2 fold increase over or percent reduction vs vehicle control: 29.79 ± 5.69 fold or %
  Slc20a1 fold increase over or percent reduction vs vehicle control: 36.31 ± 7.52 fold or %
  Smad3 fold increase over or percent reduction vs vehicle control: 1.09 ± 0.18 fold or %
  Stat1 fold increase over or percent reduction vs vehicle control: 1.20 ± 0.20 fold or %
  Tbk1 fold increase over or percent reduction vs vehicle control: 1.17 ± 0.15 fold or %
  Tlr1 fold increase over or percent reduction vs vehicle control: 1.52 ± 0.56 fold or %
  Tlr2 fold increase over or percent reduction vs vehicle control: 1.05 ± 0.16 fold or %
  Tlr3 fold increase over or percent reduction vs vehicle control: 5.46 ± 14.97 fold or %
  Tlr4 fold increase over or percent reduction vs vehicle control: 1.13 ± 0.27 fold or %
  Tlr6 fold increase over or percent reduction vs vehicle control: 1.25 ± 0.31 fold or %
  Tlr9 fold increase over or percent reduction vs vehicle control: 1.78 ± 0.32 fold or %
  Tnf fold increase over or percent reduction vs vehicle control: 3.41 ± 24.15 fold or %
  Tnfaip3 fold increase over or percent reduction vs vehicle control: 10.12 ± 40.91 fold or %
  Tnfrsf1a fold increase over or percent reduction vs vehicle control: 1.18 ± 0.13 fold or %
  Tnfrsf1b fold increase over or percent reduction vs vehicle control: 1.52 ± 0.29 fold or %
  Tnfrsf10b fold increase over or percent reduction vs vehicle control: 1.17 ± 0.22 fold or %
  Tnfsf10 fold increase over or percent reduction vs vehicle control: 1.09 ± 0.21 fold or %
  Tnfsf14 fold increase over or percent reduction vs vehicle control: 1.34 ± 0.30 fold or %
  Tollip fold increase over or percent reduction vs vehicle control: 1.11 ± 0.10 fold or %
  Tradd fold increase over or percent reduction vs vehicle control: 1.10 ± 0.24 fold or %
  Traf2 fold increase over or percent reduction vs vehicle control: 1.17 ± 0.13 fold or %
  Traf3 fold increase over or percent reduction vs vehicle control: 3.24 ± 6.50 fold or %
  Traf5 fold increase over or percent reduction vs vehicle control: 1.24 ± 0.14 fold or %
  Traf6 fold increase over or percent reduction vs vehicle control: 1.17 ± 0.24 fold or %
  Zap70 fold increase over or percent reduction vs vehicle control: 1.52 ± 0.48 fold or %
150 mg/kg BIDx1, […]
  Agt fold increase over or percent reduction vs vehicle control: 50.51 ± 41.92 fold or %
  Akt1 fold increase over or percent reduction vs vehicle control: 8.16 ± 7.88 fold or %
  Atf1 fold increase over or percent reduction vs vehicle control: 1.13 ± 0.30 fold or %
  Atf2 fold increase over or percent reduction vs vehicle control: 1.00 ± 0.20 fold or %
  Bcl2a1a fold increase over or percent reduction vs vehicle control: 4.90 ± 3.38 fold or %
  Bcl2l1 fold increase over or percent reduction vs vehicle control: 1.00 ± 0.07 fold or %
  Bcl3 fold increase over or percent reduction vs vehicle control: 14.36 ± 16.67 fold or %
  Bcl10 fold increase over or percent reduction vs vehicle control: 1.18 ± 0.09 fold or %
  Birc3 fold increase over or percent reduction vs vehicle control: 1.10 ± 0.26 fold or %
  Card10 fold increase over or percent reduction vs vehicle control: 40.14 ± 8.96 fold or %
  Card11 fold increase over or percent reduction vs vehicle control: 1.85 ± 0.30 fold or %
  Casp1 fold increase over or percent reduction vs vehicle control: 1.82 ± 0.71 fold or %
  Casp8 fold increase over or percent reduction vs vehicle control: 1.14 ± 0.07 fold or %
  Ccl2 fold increase over or percent reduction vs vehicle control: 1.47 ± 0.35 fold or %
